# Experiments:
# [1] = test system: cellules de la papille dermique du follicule pileux; assay: cell metabolism of dermal papilla cells in monolayer culture; type: cell-based; settings: for augmentation du métabolisme cellulaire: culture mono-couche, concentrations not given
# Description: L'intérêt de l'association de ces deux actifs a été confirmé sur d'autres modèles cellulaires, notamment sur le métabolisme des cellules de la papille dermique du follicule pileux en culture mono-couche, où l'association GP4G + nicotinate de tocophérol a montré une augmentation de + 26,2 % du métabolisme cellulaire, supérieure à celle des actifs testés seuls (12,6 % et 18,3 % respectivement).
# [2] = test system: co-culture de cellules endothéliales humaines et de fibroblastes humains; assay: in vitro angiogenesis model: co-culture, tubule length quantified by image analysis after 12 days; type: cell-based; settings: 12 days of culture, untreated control 4150
# Description: Par ailleurs, la composante vasculaire jouant un rôle fondamental dans la croissance du follicule pileux, l'influence des principes actifs précédemment décrits sur ce paramètre a été évaluée sur un modèle d'angiogénèse in vitro.
# Le modèle repose sur une co-culture de cellules endothéliales humaines et de fibroblastes humains (kit angiogénèse Bioprédic International), qui est réalisée en présence ou pas des actifs à tester.
# Les cellules endothéliales migrent à travers la matrice pour former des structures tubulaires, qui sont quantifiées au bout de 12 jours de culture. La quantification de la longueur des capillaires est réalisée par analyse d'image.
molecule,measurement,setting,value
"Cc1c(C)c2c(c(C)c1OC(=O)c1cccnc1)CCC(C)(CCCC(C)CCCC(C)CCCC(C)C)O2 (stereo not drawn) [Nicotinate de tocophérol, Alpha Tocophéryl Nicotinate]",augmentation du métabolisme cellulaire,[1],"18,3%"
same,LONGUEUR DES TUBULES PAR CHAMP DE COMPTAGE Moyenne,[2]; 1 µg/ml,4015
same,LONGUEUR DES TUBULES PAR CHAMP DE COMPTAGE Moyenne,[2]; 10 µg/ml,4634
same,LONGUEUR DES TUBULES PAR CHAMP DE COMPTAGE Moyenne,[2]; 20 µg/ml,5363
"Nc1cc(N2CCCCC2)nc(N)[n+]1[O-] [Minoxidil, reference compound]",LONGUEUR DES TUBULES PAR CHAMP DE COMPTAGE Moyenne,[2]; Minoxidil 25 µg/ml,7662
diguanosine tétraphosphate [GP4G],augmentation du métabolisme cellulaire,[1],"12,6%"
same,métabolisme des cellules de la papille dermique (CPD),"[1]; en présence de GP4G, result in words",augmentation fonction-dose
same,LONGUEUR DES TUBULES PAR CHAMP DE COMPTAGE Moyenne,[2]; GP4G 0.01 %,3814
same,LONGUEUR DES TUBULES PAR CHAMP DE COMPTAGE Moyenne,[2]; GP4G 0.1 %,4040
same,LONGUEUR DES TUBULES PAR CHAMP DE COMPTAGE Moyenne,[2]; GP4G 1.0 %,6803
"Cc1ccc(C(=O)Nc2ccc(S(=O)(=O)O)c3cc(S(=O)(=O)O)cc(S(=O)(=O)O)c23)cc1NC(=O)c1cccc(NC(=O)Nc2cccc(C(=O)Nc3cc(C(=O)Nc4ccc(S(=O)(=O)O)c5cc(S(=O)(=O)O)cc(S(=O)(=O)O)c45)ccc3C)c2)c1 [Suramine, reference compound]",LONGUEUR DES TUBULES PAR CHAMP DE COMPTAGE Moyenne,[2]; Suramine 20 µM,3072
